Assay results taken from US20070054916A1, “Aryl nitrogen-containing bicyclic compounds and methods of use” (Amgen Inc., priority 2004, published 2007).

Test system: production of TNF by monocytes activated with bacterial lipopolysaccharide (LPS)
Assay: Lipopolysaccharide-activated monocyte TNF production assay
Type: cell-based
Details: Homo sapiens, read-out: IC50 values in the monocyte assay (LPS induced TNF release)
In short: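 Adherent human PBMC-derived monocytes (~70%) in DMEM/2% FCS were pre-incubated 60 min with nine two-fold compound dilutions, then stimulated with E. coli K532 LPS (added as 30 ng/ml solution) for 4 h at 37 °C. Supernatant TNF-α was measured by sandwich ELISA. IC50 was taken from a polynomial fit of TNF versus compound concentration.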

How did the IC50 turn out when `Cc1ccc(C(=O)Nc2cc(C(=O)N3CCN(C)CC3)cc(C(F)(F)F)c2)cc1-c1ccc2nc(N)ncc2c1` [Example 158, 3-(2-amino-6-quinazolinyl)-4-methyl-N-(3-((4-methyl-1-piperazinyl)carbonyl)-5-(trifluoromethyl)phenyl)benzamide] was run?
Its IC50 is ≤ 25 µM.

`Cc1ccc(C(=O)Nc2cc(CN3CCN(C)CC3)cc(C(F)(F)F)c2)cc1-c1ccc2nc(N)ncc2c1` [Example 159, 3-(2-amino-6-quinazolinyl)-4-methyl-N-(3-((4-methyl-1-piperazinyl)methyl)-5-(trifluoromethyl)phenyl)benzamide] was tested. Which IC50 did it give?
Its IC50 is ≤ 25 µM.

For `Cc1ccc(C(=O)OCc2ccccc2)cc1-c1ccc2nc(N)ncc2c1` [Example 160, phenylmethyl 3-(2-amino-6-quinazolinyl)-4-methylbenzoate], which IC50 is on record?
The IC50 was ≤ 25 µM.

How did the IC50 turn out when `CN(C)CCCN(C)c1ccc(C(F)(F)F)cc1NC(=O)c1cc(-c2ccc3nc(N)ncc3c2)cn(C)c1=O` [Example 164, 5-(2-amino-6-quinazolinyl)-N-(2-((3-(dimethylamino)propyl)(methyl)amino)-5-(trifluoromethyl)phenyl)-1-methyl-2-oxo-1,2-dihydro-3-pyridinecarboxamide] was run?
The IC50 was ≤ 25 µM.

For `CNc1ncc2cc(-c3cc(C(=O)Nc4cccc(C(F)(F)F)c4)ccc3C)cnc2n1` [Example 167, 4-methyl-3-(2-(methylamino)pyrido[2,3-d]pyrimidin-6-yl)-N-(3-(trifluoromethyl)phenyl)benzamide], which IC50 is on record?
The IC50 was ≤ 25 µM.

`CNc1ncc2cc(-c3cc(C(=O)NCc4ccccn4)ccc3C)cnc2n1` [Example 185, 4-methyl-3-(2-(methylamino)pyrido [2,3-d]pyrimidin-6-yl)-N-(2-pyridinylmethyl) benzamide] was tested. Which IC50 did it give?
Its IC50 is ≤ 25 µM.

For `CNc1ncc2cc(-c3cc(C(=O)Nc4cc(C(C)(C)C)ccc4OC)ccc3C)cnc2n1` [Example 186], which IC50 is on record?
Its IC50 is ≤ 25 µM.

For `CNc1ncc2cc(-c3cc(C(=O)Nc4ccc(NC(=O)NCCN5CCOCC5)c(C(F)(F)F)c4)ccc3C)cnc2n1` [Example 187, 4-methyl-3-(2-(methylamino)pyrido [2,3-d]pyrimidin-6-yl)-N-(4-((((2-(4-morpholinyl)ethyl)amino)carbonyl)amino)-3-(trifluoromethyl)phenyl)benzamide], which IC50 is on record?
The IC50 was ≤ 25 µM.

How did the IC50 turn out when `CCN(CC)CCNC(=O)Nc1ccc(NC(=O)c2ccc(C)c(-c3cnc4nc(NC)ncc4c3)c2)cc1C(F)(F)F` [Example 188] was run?
The IC50 was ≤ 25 µM.

`CNc1ncc2cc(-c3cc(C(=O)Nc4cc(C(=O)NCCN5CCOCC5)cc(C(F)(F)F)c4)ccc3C)cnc2n1` [Example 189, 4-methyl-3-(2-(methylamino)pyrido [2,3-d]pyrimidin-6-yl)-N-(3-(((2-(4-morpholinyl)ethyl)amino)carbonyl)-5-(trifluoromethyl)phenyl)benzamide] was tested. Which IC50 did it give?
Its IC50 is ≤ 25 µM.

How did the IC50 turn out when `CCN(CC)CCNC(=O)c1cc(NC(=O)c2ccc(C)c(-c3cnc4nc(NC)ncc4c3)c2)cc(C(F)(F)F)c1` [Example 190, N-(3-(((2-(diethylamino)ethyl)amino)carbonyl)-5-(trifluoromethyl)phenyl)-4-methyl-3-(2-(methylamino)pyrido [2,3-d]pyrimidin-6-yl)benzamide] was run?
The IC50 was ≤ 25 µM.

Which IC50 does the source give for `CCN(CC)S(=O)(=O)c1ccc(OC)c(NC(=O)c2ccc(C)c(-c3cnc4nc(NC)ncc4c3)c2)c1` [Example 191, N-(5-((diethylamino)sulfonyl)-2-(methyloxy)phenyl)-4-methyl-3-(2-(methylamino)pyrido [2,3-d]pyrimidin-6-yl)benzamide] here?
The IC50 was ≤ 25 µM.

`CNc1ncc2cc(-c3cc(C(=O)Nc4cc(C(C)(C)C)ccc4NC(=O)CN4CCOCC4)ccc3C)cnc2n1` [Example 192] was tested. Which IC50 did it give?
The IC50 was ≤ 25 µM.

With `CNc1ncc2cc(-c3cc(C(=O)Nc4cc(C(F)(F)F)ccc4N(C)CCCN(C)C)ccc3C)cnc2n1` [Example 193, N-(2-((3-(dimethylamino)propyl)(methyl)amino)-5-(trifluoromethyl)phenyl)-4-methyl-3-(2-(methylamino)pyrido[2,3-d]pyrimidin-6-yl)benzamide] as the molecule, how does the IC50 read?
The IC50 was ≤ 25 µM.

How did the IC50 turn out when `Nc1ncc2cc(-c3cc(NC(=O)c4cccc(C(F)(F)F)c4)ccc3C(F)(F)F)ccc2n1` [Example 196] was run?
Its IC50 is ≤ 25 µM.

Which IC50 does the source give for `Cc1c(NC(=O)c2cccc(C(F)(F)F)c2)cccc1-c1ccc2nc(N)ncc2c1` [Example 197, N-(3-(2-amino-6-quinazolinyl)-2-methylphenyl)-3-(trifluoromethyl)benzamide] here?
Its IC50 is ≤ 25 µM.

`CNc1ncc2cc(-c3cccc(NC(=O)c4cccc(C(F)(F)F)c4)c3C)cnc2n1` [Example 198, N-2-methyl-3-(2-(methylamino)pyrido[2,3-d]pyrimidin-6-yl)-N-(3-(trifluoromethyl)phenyl)benzamide] was tested. Which IC50 did it give?
Its IC50 is ≤ 25 µM.

With `CNc1ncc2cc(-c3cc(NC(=O)c4cccc(C(F)(F)F)c4)ccc3C)cnc2n1` [Example 199, N-(4-methyl-3-(2-(methylamino)pyrido[2,3-d]pyrimidin-6-yl)phenyl)-3-(trifluoromethyl) benzamide] as the molecule, how does the IC50 read?
The IC50 was ≤ 25 µM.

How did the IC50 turn out when `CNc1ncc2cc(-c3cc(NC(=O)c4cc(C(F)(F)F)cc(C(F)(F)F)c4)ccc3C)cnc2n1` [Example 200, N-(4-methyl-3-(2-(methylamino)pyrido[2,3-d]pyrimidin-6-yl)phenyl)-3,5-bis(trifluoromethyl)benzamide] was run?
Its IC50 is ≤ 25 µM.

How did the IC50 turn out when `CNc1ncc2cc(-c3cc(NC(=O)c4cccc(Cl)c4Cl)ccc3C)cnc2n1` [Example 201, 2,3-dichloro-N-(4-methyl-3-(2-(methylamino)pyrido[2,3-d]pyrimidin-6-yl)phenyl)benzamide] was run?
The IC50 was ≤ 25 µM.

`CNc1ncc2cc(-c3cc(NC(=O)c4cccc(C(F)(F)F)c4F)ccc3C)cnc2n1` [Example 202] was tested. Which IC50 did it give?
Its IC50 is ≤ 25 µM.

`CNc1ncc2cc(-c3cc(NC(=O)c4cccc5c4OC(F)(F)O5)ccc3C)cnc2n1` [Example 214, 2,2-difluoro-N-(4-methyl-3-(2-(methylamino)pyrido[2,3-d]pyrimidin-6-yl)phenyl)-1,3-benzodioxole-4-carboxamide] was tested. Which IC50 did it give?
Its IC50 is ≤ 25 µM.

For `CNc1ncc2cc(-c3cc(NC(=O)c4cc(OC)c(OC)c(OC)c4)ccc3C)cnc2n1` [Example 216, N-(4-methyl-3-(2-(methylamino)pyrido[2,3-d]pyrimidin-6-yl)phenyl)-3,4,5-tris(methyloxy)benzamide], which IC50 is on record?
Its IC50 is ≤ 25 µM.

How did the IC50 turn out when `CNc1ncc2cc(-c3cc(NC(=O)c4cc(F)cc(C(F)(F)F)c4)ccc3C)cnc2n1` [Example 217, 3-fluoro-N-(4-methyl-3-(2-(methylamino)pyrido[2,3-d]pyrimidin-6-yl)phenyl)-5-(trifluoromethyl) benzamide] was run?
Its IC50 is ≤ 25 µM.

How did the IC50 turn out when `CNc1ncc2cc(-c3cccc(NC(=O)c4cc(F)cc(C(F)(F)F)c4)c3C)cnc2n1` [Example 219] was run?
Its IC50 is ≤ 25 µM.

How did the IC50 turn out when `Cc1c(NC(=O)c2cc(C(F)(F)F)cc(C(F)(F)F)c2)cccc1-c1ccc2nc(N)ncc2c1` [Example 220, N-(3-(2-amino-6-quinazolinyl)-2-methylphenyl)-3,5-bis(trifluoromethyl)benzamide] was run?
The IC50 was ≤ 25 µM.

`CNc1ncc2cc(-c3cccc(NC(=O)c4cc(C(F)(F)F)cc(C(F)(F)F)c4)c3C)cnc2n1` [Example 221] was tested. Which IC50 did it give?
Its IC50 is ≤ 25 µM.

With `Cc1c(NC(=O)c2cc(C(F)(F)F)ccc2F)cccc1-c1ccc2nc(N)ncc2c1` [Example 222, N-(3-(2-amino-6-quinazolinyl)-2-methylphenyl)-2-fluoro-5-(trifluoromethyl) benzamide] as the molecule, how does the IC50 read?
The IC50 was ≤ 25 µM.

For `CNc1ncc2cc(-c3cccc(NC(=O)c4cc(C(F)(F)F)ccc4F)c3C)cnc2n1` [Example 223, 2-fluoro-N-(2-methyl-3-(2-(methylamino)pyrido[2,3-d]pyrimidin-6-yl)phenyl)-5-(trifluoromethyl) benzamide], which IC50 is on record?
Its IC50 is ≤ 25 µM.

For `Cc1cc(C)c(-c2ccc3nc(N)ncc3c2)c(C)c1NC(=O)c1cccc(C(F)(F)F)c1` [Example 224, N-(3-(2-amino-6-quinazolinyl)-2,4,6-trimethylphenyl)-3-(trifluoromethyl) benzamide], which IC50 is on record?
Its IC50 is ≤ 25 µM.

Which IC50 does the source give for `Cc1ccc(C(=O)Nc2nc(C)c(C)s2)cc1-c1ccc2nc(N)ncc2c1` [Example 225, 3-(2-amino-6-quinazolinyl)-N-(4,5-dimethyl-1,3-thiazol-2-yl)-4-methylbenzamide] here?
The IC50 was ≤ 25 µM.

How did the IC50 turn out when `Cc1ccc(C(=O)Nc2ccc(C(C)(C)C)c(NC(=O)CN(C)C)c2)cc1-c1ccc2nc(N)ncc2c1` [Example 227, 3-(2-amino-6-quinazolinyl)-N-(4-(1,1-dimethylethyl)-3-((N,N-dimethylglycyl)amino)phenyl)-4-methylbenzamide] was run?
Its IC50 is ≤ 25 µM.

For `Cc1ccc(C(=O)Nc2cc(C(F)(F)F)ccc2N2CCS(=O)(=O)CC2)cc1-c1ccc2nc(N)ncc2c1` [Example 228, 3-(2-amino-6-quinazolinyl)-N-(2-(1,1-dioxido-4-thiomorpholinyl)-5-(trifluoromethyl)phenyl)-4-methylbenzamide], which IC50 is on record?
Its IC50 is ≤ 25 µM.

With `CCN(CC)S(=O)(=O)c1ccc(OC)c(NC(=O)c2ccc(C)c(-c3ccc4nc(N)ncc4c3)c2)c1` [Example 231, 3-(2-amino-6-quinazolinyl)-N-(5-((diethylamino)sulfonyl)-2-(methyloxy)phenyl)-4-methylbenzamide] as the molecule, how does the IC50 read?
The IC50 was ≤ 25 µM.

`Cc1ccc(C(=O)Nc2cccc(Cl)c2Cl)cc1-c1ccc2nc(N)ncc2c1` [Example 232, 3-(2-amino-6-quinazolinyl)-N-(2,3-dichlorophenyl)-4-methylbenzamide] was tested. Which IC50 did it give?
Its IC50 is ≤ 25 µM.

With `COc1ccc(NC(=O)c2ccc(C)c(-c3ccc4nc(N)ncc4c3)c2)c(OC)n1` [Example 233, 3-(2-amino-6-quinazolinyl)-N-(2,6-bis(methyloxy)-3-pyridinyl)-4-methylbenzamide] as the molecule, how does the IC50 read?
Its IC50 is ≤ 25 µM.

With `CC(=O)Nc1ccc(C(F)(F)F)cc1NC(=O)c1ccc(C)c(-c2ccc3nc(N)ncc3c2)c1` [Example 234, N-(2-(acetylamino)-5-(trifluoromethyl)phenyl)-3-(2-amino-6-quinazolinyl)-4-methylbenzamide] as the molecule, how does the IC50 read?
Its IC50 is ≤ 25 µM.

Which IC50 does the source give for `COc1ccc(OCCCN2CCN(C)CC2)cc1NC(=O)c1ccc(C)c(-c2ccc3nc(N)ncc3c2)c1` [Example 235] here?
The IC50 was ≤ 25 µM.
